Assay results reported in PubChem BioAssay AID1013 (Columbia University Molecular Screening Center, 2008).
Calls of active or inactive are those of the source. The rule behind the calls is not given here.

test: blockers of VCAM1 upregulation by TNFa – imaging, TNFa stimulus, retest and dose response, confirmation (AID 1013); settings: TNFa-stimulated cells, VCAM1 expression imaging; at 2 µM; stronger effect = higher value;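 for cell count: compound on cells 1 h before TNFa then 24 h more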

| Compound | inhibition |
| --- | --- |
| O=[N+]([O-])c1cnccc1Nc1ccc(F)cc1 | 15.4% (inactive) |
| COC1(c2ccccc2)NC(=S)NN=C1c1ccccc1 (centres undefined) | -8.1% (inactive) |
| Nc1cc(=O)nc(SCc2ccccc2)n1Cc1ccco1 | 7% (inactive) |
| Cc1ccc(S(=O)(=O)Nc2cc(C(=O)NCCN3CCCC3)ccc2N2CCCCC2)cc1 | -2.2% (inactive) |
| C=CCn1c(N)c(C(=O)OCC(C)C)c2nc3ccccc3nc21 | -3.5% (inactive) |
| Cc1ccn2c(NC(=O)c3ccco3)c(-c3ccccc3)nc2c1 | 3.4% (inactive) |
| CCCCSc1nc(C)cc(SCC(=O)N/N=C/c2cccc(OC)c2O)n1 | 22.8% (inactive) |
| CN1CCCCc2c1[nH]c1ccccc1c2=O | 5.5% (inactive) |
| O=C(CS(=O)(=O)c1cn(Cc2cccc(F)c2)c2ccccc12)N1CCCCC1 | -4.4% (inactive) |
| CCOc1ccc(N2C(=O)CSC2c2ccncc2)cc1 (centres undefined) | 0% (inactive) |
| N/C(Cc1cccs1)=N\OC(=O)COc1ccc(Br)cc1Cl | 8.2% (inactive) |
| Cc1n[nH]c(=O)nc1NCc1ccccc1 | -9.9% (inactive) |
| O=C(CCCCCN1C(=O)c2ccccc2C1=O)Nc1nccs1 | -4.8% (inactive) |
| CC1CCN(C(=O)C2c3ccccc3C(=O)N3CCc4ccccc4C23)CC1 (centres undefined) | 3.6% (inactive) |
| Nc1nnc(SCC(=O)NCc2ccc3c(c2)OCO3)s1 | 0.2% (inactive) |
| FC(F)(F)c1cc(-c2ccc3c(c2)OCO3)nc(NCc2ccco2)n1 | 16.2% (inactive) |
| CCOc1ccccc1N1CCN(C(=O)c2cccc(-c3ccc(O)cc3)c2)CC1 | -6.4% (inactive) |
| COc1ccc(Nc2nc(N3CCCC3)nc3ccccc23)c(OC)c1 | 12.2% (inactive) |
| CCOc1ccc(-n2c(SCC(=O)Nc3ccc(OC)cc3)nc3c(c2=O)SCC3)cc1 | -17% (inactive) |
| CC(=NCCCO)c1c(O)n(Cc2ccccc2)c(=O)[nH]c1=O | -13.3% (inactive) |
| O=[N+]([O-])c1ccc(/C=N/n2c(COc3ccccc3)n[nH]c2=S)cc1 | -9.2% (inactive) |
| O=C(NC1CC1)c1ccc(S(=O)(=O)NCC2CCCCC2)cc1 | 7.4% (inactive) |
| COc1ccccc1C(=O)Nc1ccc2c(c1)nc(CN1CCN(C(C)=O)CC1)n2C | 0.2% (inactive) |
| OC1(c2cccc(C(F)(F)F)c2)CCN(c2ncnc3c2[nH]c2ccc(F)cc23)CC1 | 1% (inactive) |

| Compound | inhibition |
| --- | --- |
| O=C(O)c1cccc(S(=O)(=O)Nc2ccccc2Cl)c1 | -5.6% (inactive) |
| CCCNS(=O)(=O)c1ccc2c(c1)CCCN2C(C)=O | -18.5% (inactive) |
| CCn1c(=O)cc(OCC(=O)NCc2ccco2)c2ccccc21 | -6.7% (inactive) |
| COc1cccc(/C=N/Nc2nc(Nc3ccccc3)nc(-n3nc(C)cc3C)n2)c1O | -11.8% (inactive) |
| O=C(NC(Cc1c[nH]c2ccccc12)C(=O)O)c1ccco1 (centres undefined) | -11.2% (inactive) |
| COc1ccc(OC)c(C2CC(=O)c3c([nH]c(C(=O)OC(C)C)c3C)C2)c1 (centres undefined) | 35.5% (inactive) |
| O=C(c1cc(-c2ccncc2)nc2ccc(Br)cc12)N1CCN(c2ccccn2)CC1 | 1.3% (inactive) |
| O=C(CN1CCC(c2nc3ccccc3s2)CC1)NCc1cccs1 | -3.1% (inactive) |
| CCOC(=O)/C(=C\c1cccnc1)C(=O)c1cc(C(C)=O)c(Nc2ccccc2)s1 | 19.8% (inactive) |
| Cc1cccc(N(CC(=O)N/N=C/c2ccc(OCC(=O)NCc3ccco3)cc2)S(C)(=O)=O)c1C | -4.7% (inactive) |
| O=C(Nc1ccccc1)/C(=C\c1ccc2c(c1)OCO2)NC(=O)c1ccco1 | -3% (inactive) |
| O=C(N/N=C/c1ccncc1)c1ccccc1 | 5.8% (inactive) |
| O=C(NCc1ccco1)c1cc(-c2ccc(Cl)cc2)on1 | -6.2% (inactive) |
| CSCCC(NC(=O)OCc1ccccc1)C(=O)O (centres undefined) | 6.7% (inactive) |
| O=c1c(-c2ccc(Br)cc2)coc2c(CN3CCOCC3)c(O)ccc12 | -12.4% (inactive) |
| CSc1nc2nccc(-c3ccc(Oc4ccccc4)cc3)n2n1 | -5.9% (inactive) |
| Cn1c(SCC(=O)NC2CCCCC2)nnc1-c1cccc(N)c1 | 4.3% (inactive) |
| Cc1nc([N+](=O)[O-])c(Br)n1CC(=O)c1ccc(Br)cc1 | 27% (inactive) |
| CO/N=C/C(=N\Nc1ccc(C)cc1)C(=O)c1ccc(OC)cc1 | 29% (inactive) |
| Cc1ccccc1Cn1nc(C)c(NC(=O)c2cc(-c3cccs3)on2)c1C | -4.7% (inactive) |
| COc1ccc2[nH]c(=O)c(CN(C(=O)c3ccncc3)C(C)C)cc2c1 | -5.2% (inactive) |
| O=C(Cn1cccc1C(=O)c1ccccc1)NCCN1CCOCC1 | -13.5% (inactive) |
| Cn1c(NCc2c[nH]c3ccccc23)nc2ccccc21 | 18% (inactive) |
| Cc1nn(-c2cc(C)c3ccccc3n2)c2c1C1C(C2)C1(C)C (centres undefined) | -11.4% (inactive) |

| Compound | inhibition |
| --- | --- |
| COc1ccccc1-c1cn(S(=O)(=O)c2ccc(C)cc2)nc1N | 2.2% (inactive) |
| CSc1ccc(CNC2CN3CCC2CC3)cc1 (centres undefined) | 6.9% (inactive) |
| CCOC(=O)c1ccc(NS(=O)C23CC4CC(CC(C4)C2)C3)cc1 (centres undefined) | -13.9% (inactive) |
| Cc1ccc(S(=O)(=O)Cn2nnnc2C(C(C)C)N2CCN(c3nc4ccccc4s3)CC2)cc1 (centres undefined) | -0.6% (inactive) |
| CCCCOCCCNC(=O)c1cccs1 | -15.4% (inactive) |
| CCn1c(CN2CCN(c3ccc(Cl)cc3)CC2)nc2ccccc21 | 23.2% (inactive) |
| CN=c1sc2ccccc2n1CC(O)COc1ccccc1 (centres undefined) | -13.2% (inactive) |
| CCOC(=O)Cn1nnnc1CN(CCc1ccccc1)Cc1cc2cc(CC)ccc2[nH]c1=O | 3.3% (inactive) |
| COc1cc(NC(=O)c2ccc(COCC(F)(F)F)o2)cc(OC)c1OC | 20.7% (inactive) |
| COc1cc(/C=N/NC(=O)Nc2ccccc2)ccc1OCCOc1ccccc1C | 33.1% (inactive) |
| CC(C)C(=O)N1CCN(c2nc(-c3ccccc3)c3c(c2C#N)CC(C)(C)OC3)CC1 | 5.1% (inactive) |
| CCOC1=NC(C(=O)O)c2ccccc2/C(=C(/C)Cl)N1 (centres undefined) | 7.8% (inactive) |
| O=C(O)Cc1ccc(NC(=O)C2CC=CCC2C(=O)O)cc1 (centres undefined) | 4.4% (inactive) |
| COc1cc(NC(=O)CN2C(=O)NC(C)(CC(C)C)C2=O)cc(OC)c1 (centres undefined) | 11.6% (inactive) |
| CCOc1cc(NC(=O)c2ccco2)c(OCC)cc1NC(=O)CCC(=O)NCc1cccnc1 | 3.7% (inactive) |
| CSc1nc2sc(-c3ccccc3)cc2c(=O)n1N | 8.1% (inactive) |
| Cc1cnc(NC(=O)C2CCCC2)s1 | 14.1% (inactive) |
| CCOC(=O)C1C(=O)NC(N2CCCCC2)=NC1c1ccco1 (centres undefined) | -0.9% (inactive) |
| CCC(=O)Nc1cccc(C(=O)/C=C/c2cc(Br)ccc2OC)c1 | 10% (inactive) |
| O=C1Nc2ccc(S(=O)(=O)N3CCOCC3)c3cccc1c23 | -7.2% (inactive) |
| Cc1oc2cc3c(C(=O)N4CCCCC4)c(C)oc3cc2c1C(=O)N1CCCCC1 | 4.7% (inactive) |
| CCC1=NC(c2ccccc2Cl)N(O)C1(C)C (centres undefined) | 5.5% (inactive) |
| Cc1oc(-c2ccc(Cl)cc2)cc1-c1nn2c(-c3ccoc3C)nnc2s1 | -0.1% (inactive) |
| O=C(COc1ccccc1-c1ccccc1)N/N=C/c1cccc2ccccc12 | 76.4% (inactive) |

same assay, conditions: TNFa-stimulated cells, VCAM1 expression imaging; cell count; at 10 µM; stronger effect = lower value

| Compound | cell count [%] |
| --- | --- |
| Cc1nc([N+](=O)[O-])c(Br)n1CC(=O)c1ccc(Br)cc1 | 116 |
| O=C(COc1ccccc1-c1ccccc1)N/N=C/c1cccc2ccccc12 | 87.5 |
